Experimental data published in PubChem BioAssay (NCI).
Several values for one entry are separate records, joined by “and”; a condition that tells them apart may be missing. Equal entries are not always repeated.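 Protocol summary: plate cells (96-well), add compound at 5 concentrations, incubate 48 h, interpolate endpoints linearly. The concentration for 50% growth inhibition is given as GI50. TGI: concentration producing complete growth inhibition.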

Tests used:
Test in all cases: inhibition of tumour cell growth, NCI panel, 48 h
786-0 renal = tested on: 786-0 renal
DU-145 prostate = tested on: DU-145 prostate
HCT-15 colon = tested on: HCT-15 colon
HL-60(TB) leukemia = tested on: HL-60(TB) leukemia
MALME-3M melanoma = tested on: MALME-3M melanoma
NCI-H226 lung = tested on: NCI-H226 lung
OVCAR-5 ovarian = tested on: OVCAR-5 ovarian
SNB-19 CNS = tested on: SNB-19 CNS
T-47D breast = tested on: T-47D breast
UACC-62 melanoma = tested on: UACC-62 melanoma

| Structure (SMILES) | GI50 (786-0 renal) | TGI (786-0 renal) | GI50 (DU-145 prostate) | TGI (DU-145 prostate) | GI50 (HCT-15 colon) | TGI (HCT-15 colon) | GI50 (HL-60(TB) leukemia) | TGI (HL-60(TB) leukemia) | GI50 (MALME-3M melanoma) | TGI (MALME-3M melanoma) | GI50 (NCI-H226 lung) | TGI (NCI-H226 lung) | GI50 (OVCAR-5 ovarian) | TGI (OVCAR-5 ovarian) | GI50 (SNB-19 CNS) | TGI (SNB-19 CNS) | GI50 (T-47D breast) | TGI (T-47D breast) | GI50 (UACC-62 melanoma) | TGI (UACC-62 melanoma) |
| --- | --- | --- | --- | --- | --- | --- | --- | --- | --- | --- | --- | --- | --- | --- | --- | --- | --- | --- | --- | --- |
| CCOC(=O)C1=C(N)Oc2c(sc3c(C)cccc23)C1c1ccc(Cl)cc1 (stereo not given) | 4.05 µM | 16.8 µM | 3.89 µM | 14.1 µM | 2.02 µM | 10.6 µM | 2.56 µM | 7.81 µM | 5.19 µM | 19.6 µM | 5.02 µM | 19.8 µM | 4.03 µM | 15.7 µM | 3.71 µM | 16 µM | 2.79 µM | 18.8 µM | 1.08 µM | 13.3 µM |
| COc1cc(-c2cc(/C=C/C(=O)c3ccc4c(c3)OCO4)[nH]n2)cc(OC)c1OC | 2.33 µM | 5.82 µM | 2.72 µM | 9.56 µM | 2.12 µM | 7.19 µM | 2.17 µM | 6.36 µM | 4.42 µM | 20.8 µM | 3.31 µM | > 100 µM | 3.37 µM | 93.5 µM | 4.3 µM | > 100 µM | 2.51 µM | 17 µM | 4.67 µM | > 100 µM |
| COC(=O)NNc1c([N+](=O)[O-])cnn(-c2ccccc2)c1=O | – | 7.39 µM | – | 16.9 µM | – | 5.58 µM | – | 3.06 µM | – | 5.51 µM | – | 9.78 µM | – | 8.23 µM | – | 23.2 µM | – | 4.54 µM | – | 5.15 µM |
| O=C(O)CNC(=O)c1ccccc1O | – | > 100 µM | – | > 100 µM | – | > 100 µM | – | > 100 µM | – | > 100 µM | – | > 100 µM | – | > 100 µM | – | > 100 µM | – | > 100 µM | – | > 100 µM |
| O=C(c1ccccn1)c1nnn2ccccc12 | – | > 100 µM | – | > 100 µM | – | > 100 µM | – | > 100 µM | – | > 100 µM | – | > 100 µM | – | > 100 µM | – | > 100 µM | – | > 100 µM | – | > 100 µM |
| Nc1ncnc2c1c(-c1cccc(OCc3ccccc3)c1)cn2C1CC(CN2CCCC2)C1 (stereo not given) | 1.72 µM | 3.34 µM | 4 µM | 16.9 µM | 1.47 µM | 5.94 µM | 0.426 µM | 3.03 µM | 2.06 µM | 5.7 µM | 1.34 µM | 6.98 µM | 0.705 µM | 6.82 µM | 4.19 µM | 16.9 µM | 2.04 µM | 6.59 µM | 1.84 µM | 3.78 µM |
| CCOC(=O)c1ccc2c(c1)[n+](=O)c(C(=O)c1ccc3ccccc3c1)c(C(F)(F)F)n2[O-] | 1.61 µM | 2.99 µM | 1.78 µM | 3.16 µM | 1.49 µM | 3.3 µM | 0.98 µM | 2.82 µM | 1.68 µM | 3.46 µM | 1.74 µM | 3.57 µM | 1.3 µM | 2.57 µM | 1.7 µM | 3.07 µM | 0.86 µM | 2.32 µM | 1.52 µM | 2.93 µM |
| CSC(=S)N/N=C/c1ccccc1 | – | > 100 µM | – | > 100 µM | – | > 100 µM | – | > 100 µM | – | > 100 µM | – | > 100 µM | – | > 100 µM | – | > 100 µM | – | 72.1 µM | – | > 100 µM |
| COC1OCC(OS(=O)(=O)c2ccc(C)cc2)C(OC(=O)c2ccccc2)C1OC(=O)c1ccccc1 (stereo not given) | 5.13 µM | > 100 µM | 19.7 µM | > 100 µM | 5.3 µM | > 100 µM | 4.08 µM | > 100 µM | 13.7 µM | > 100 µM | > 100 µM | > 100 µM | > 100 µM | > 100 µM | 9.97 µM | > 100 µM | 3.11 µM | > 100 µM | 3.48 µM | > 100 µM |
| CC1(C)CC(=O)C(CC(C(=O)C(=O)Nc2cc(C(F)(F)F)ccc2Cl)C(=O)c2ccco2)C(=O)C1 (stereo not given) | – | > 100 µM | – | > 100 µM | – | > 100 µM | – | > 100 µM | – | > 100 µM | – | > 100 µM | – | > 100 µM | – | > 100 µM | – | > 100 µM | – | > 100 µM |
| Fc1ccc(CNc2c3ccccc3nc3ccccc23)cc1 | 3.02 µM | 11.7 µM | 3.18 µM | 11.3 µM | 1.98 µM | 5.31 µM | 2.9 µM | 8.97 µM | 2.18 µM | 5.48 µM | 2 µM | 5.44 µM | 2.41 µM | 9.25 µM | 3.66 µM | 15.4 µM | 2.53 µM | 10 µM | 2.58 µM | 9.13 µM |
| O=C(CCc1nnc(-c2c(Cl)cccc2Cl)o1)c1nc2ccccc2[nH]1 | 10.7 µM | 45.5 µM | 17.8 µM | > 100 µM | 5.13 µM | 48.6 µM | 2.23 µM | 19.3 µM | 13 µM | 52.6 µM | 6.66 µM | 31.2 µM | 7.82 µM | > 100 µM | 17.4 µM | > 100 µM | 3.34 µM | 60 µM | 3.34 µM | 27.8 µM |
| Cc1ccc(Cl)cc1Nc1nc(C(F)(F)F)ccc1C(=O)N/N=C/c1c(Cl)cccc1Cl | 0.588 µM | 1.38 µM | 1.21 µM | > 100 µM | 0.41 µM | 12.8 µM | 0.863 µM | 3.36 µM | 1.69 µM | 5.44 µM | 1.1 µM | 4.53 µM | 2.21 µM | 20.4 µM | 1.75 µM | > 52.2 µM | 0.517 µM | 5.18 µM | 0.925 µM | 4.02 µM |
| COc1c(OC(C)=O)c(OC(C)=O)cc2c1-c1ccc(OC)c(=O)cc1C(NC(C)=O)CC2 (stereo not given) | – | > 100 µM | – | > 100 µM | – | > 70 µM | – | < 0.0103 µM | – | > 100 µM | – | 1.09 µM | – | > 100 µM | – | > 95.5 µM | – | > 100 µM | – | > 100 µM |
| CC1(C)CC(=O)C(C(c2cccc(O)c2O)C2C(=O)CC(C)(C)CC2=O)C(=O)C1 | – | > 100 µM | – | > 100 µM | – | > 100 µM | – | > 100 µM | – | > 100 µM | – | > 100 µM | – | > 100 µM | – | > 100 µM | – | > 100 µM | – | > 100 µM |
| CN(CCCCCl)P(=O)(OCc1ccc([N+](=O)[O-])o1)C(F)(F)c1ccc(CC(=O)N[C@@H](CC(=O)O)C(=O)N[C@@H](Cc2ccc(C(F)(F)P(=O)(OCc3ccc([N+](=O)[O-])o3)N(C)CCCCCl)cc2)C(N)=O)cc1 (stereo not given in full) | > 100 µM | > 100 µM | 85.8 µM | > 100 µM | > 100 µM | > 100 µM | 28 µM | 64.5 µM | > 100 µM | > 100 µM | > 100 µM | > 100 µM | > 100 µM | > 100 µM | 54.9 µM | > 100 µM | 39.1 µM | > 100 µM | 58 µM | > 100 µM |
| O=C(O)c1cc(N/C=C2\C(=O)c3ccccc3OC2O)ccc1O (stereo not given) | 30.8 µg/mL | 57.7 µg/mL | 18.9 µg/mL | 59 µg/mL | 15.7 µg/mL | 44.7 µg/mL | 9.18 µg/mL | > 150 µg/mL | 7.59 µg/mL | 40.8 µg/mL | 37.7 µg/mL | 98.1 µg/mL | 29.3 µg/mL | 74.9 µg/mL | 19.9 µg/mL | 67.5 µg/mL | 5.34 µg/mL | 46.2 µg/mL | 15.6 µg/mL | 62.8 µg/mL |
| Nc1ccccc1/C=N\Nc1ccccc1 | 2.69 µM | > 100 µM | > 100 µM | > 100 µM | 5.13 µM | > 100 µM | 1.78 µM | 29.3 µM | > 100 µM | > 100 µM | > 100 µM | > 100 µM | > 100 µM | > 100 µM | > 100 µM | > 100 µM | 5.04 µM | > 100 µM | 0.353 µM | > 100 µM |
| CC1(C)CC(=O)C2=C(C1)NC(SSC1=C(C#N)C(c3ccc(Br)cc3)C3=C(CC(C)(C)CC3=O)N1)=C(C#N)C2c1ccc(Br)cc1 (stereo not given) | 53.8 µg/mL | > 100 µM and 150 µg/mL | > 150 µg/mL | > 100 µM and 150 µg/mL | 88.6 µg/mL | > 100 µM and 150 µg/mL | 31.2 µg/mL | > 100 µM and 77.1 µg/mL | 35.8 µg/mL | > 100 µM and 98.7 µg/mL | > 150 µg/mL | > 100 µM and 150 µg/mL | > 150 µg/mL | > 100 µM and 150 µg/mL | > 150 µg/mL | > 100 µM and 150 µg/mL | 35 µg/mL | > 100 µM and 119 µg/mL | 122 µg/mL | > 100 µM and 150 µg/mL |
